# Measured values as given in patent publication US8124357B2 (priority 2005, dated 2012).
# Test system: Neuro-2A cells
# Assay type: cell-based
compound,measurement,value
"CC1=C(/C=C/C(C)=C/C=C/C(C)=C/C(=O)O)C(C)(C)CCC1 [all trans retinoic acid, All Trans-Retinoic acid]",BoNT/A SNAP25197-cleavage product (uptake of BoNT/A) after differentiation reagent,increase
